Assay results: patent publication US11702422B2, “Imidazopyridazines as modulators of IL-17” (Janssen Pharmaceutica NV, priority 2020, dated 2023)

Experiments:
[1] = biological target: IL-17A(FLAG-Tagged): IL-17RA(His-Tagged) (Homo sapiens, UniProt Q16552, K93Q); experiment: IL-17A(FLAG-Tagged): IL-17RA(His-Tagged) Binding Disruption Eu-HTRF Assay; details: IL-17A/IL-17RA binding disruption, simple average if tested more than once
In short: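 IC50 comes from a one-site competition fit of the HTRF 665/620 nm ratio. Compound dilutions (2-fold, 22 points) were held 1 h rt with FLAG-tagged IL-17A dimer, then His-tagged IL-17RA plus Eu-cryptate anti-FLAG and D2 anti-His antibodies were added for 2 h rt.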

[2] = system: IL-17A-induced G-CSF production in human normal keratinocyte (NHK); experiment: NHK Assay: IL-17A-induced G-CSF production in human normal keratinocytes; format: cell-based; details: 24 h, adult normal human keratinocytes, IL-17A 5 ng/mL, simple average if tested more than once
In short: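 Inhibition of IL-17A-driven G-CSF release is measured in adult keratinocytes stimulated for 24 h at 37° C with 5 ng/mL human IL-17A that had been pre-incubated with compound for 1 h. IC50 comes from HTRF G-CSF levels; cell viability is checked in parallel by luminescent ATP assay.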

Chain of UniProt Q16552 (Q16552 with tags, fused parts or gaps K93Q): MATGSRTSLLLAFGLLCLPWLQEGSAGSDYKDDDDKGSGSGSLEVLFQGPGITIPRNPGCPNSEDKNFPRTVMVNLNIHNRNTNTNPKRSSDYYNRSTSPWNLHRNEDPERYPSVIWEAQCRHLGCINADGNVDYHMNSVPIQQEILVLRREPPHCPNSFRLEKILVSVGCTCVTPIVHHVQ

IC50 [1] | SMILES | IC50 ([2]; Homo sapiens, Keratinocyte) | IC50 [2]
48 nM | CC(O)c1nonc1C(=O)N[C@H](c1cn2ncc([C@H](NC(=O)CC3CC(F)(F)C3)C3CC3)cc2n1)C1CCC(F)(F)CC1 (single isomer, unassigned) [Example 395, N—((S)-(7-((R)-Cyclopropyl(2-(3,3-difluorocyclobutyl)acetamido)methyl)imidazo[1,2-b]pyridazin-2-yl)(4,4-difluorocyclohexyl)methyl)-4-((R*)-1-hydroxyethyl)-1,2,5-oxadiazole-3-carboxamide] | 170 nM | –
290 nM | O=C(CCC(F)(F)F)N[C@@H](c1cnn2cc([C@@H](NC(=O)c3ccnc4c3CCC4)C3CCC(F)(F)CC3)nc2c1)C1CC1 [Example 191, N—((S)-(7-((R)-Cyclopropyl(4,4,4-trifluorobutanamido)methyl)imidazo[1,2-b]pyridazin-2-yl)(4,4-difluorocyclohexyl)methyl)-6,7-dihydro-5H-cyclopenta[b]pyridine-4-carboxamide] | 1100 nM | –
17 nM | CC(C)c1nonc1C(=O)N[C@H](c1cn2ncc([C@H](NC(=O)CCC(F)(F)F)C3CC3)cc2n1)C1CCC(F)(F)CC1 [Example 379, N—((S)-(7-((R)-Cyclopropyl(4,4,4-trifluorobutanamido)methyl)imidazo[1,2-b]pyridazin-2-yl)(4,4-difluorocyclohexyl)methyl)-4-isopropyl-1,2,5-oxadiazole-3-carboxamide] | 30 nM | –
100 nM | O=C(CCC(F)(F)F)N[C@@H](c1cnn2cc([C@@H](NC(=O)c3ncnn3CCOC(F)F)C3CCC(F)(F)CC3)nc2c1)C1CC1 [Example 55, N—((S)-(7-((R)-Cyclopropyl(4,4,4-trifluorobutanamido)methyl)imidazo[1,2-b]pyridazin-2-yl)(4,4-difluorocyclohexyl)methyl)-1-(2-(difluoromethoxy)ethyl)-1H-1,2,4-triazole-5-carboxamide] | 210 nM | –
1200 nM | Cn1ccnc1C(=O)N[C@H](c1cn2ncc([C@H](NC(=O)CCC(F)(F)F)C3CC3)cc2n1)C1CCC(F)(F)CC1 [Example 469, N—((S)-(7-((R)-Cyclopropyl(4,4,4-trifluorobutanamido)methyl)imidazo[1,2-b]pyridazin-2-yl)(4,4-difluorocyclohexyl)methyl)-1-methyl-1H-imidazole-2-carboxamide] | > 20000 nM | –
250 nM | CC(C)n1nccc1C(=O)N[C@H](c1nc2cc([C@H](NC(=O)CCC(F)(F)F)C3CC3)cnn2c1F)C1CCC(F)(F)CC1 [Example 118, N—((S)-(7-((R)-Cyclopropyl(4,4,4-trifluorobutanamido)methyl)-3-fluoroimidazo[1,2-b]pyridazin-2-yl)(4,4-difluorocyclohexyl)methyl)-1-isopropyl-1H-pyrazole-5-carboxamide] | 370 nM | –
85 nM | [2H]C([2H])([2H])C([2H])([2H])n1nccc1C(=O)N[C@H](c1cn2ncc([C@H](NC(=O)CC3CC(F)(F)C3)C3CC3)cc2n1)C1CCC(F)(F)CC1 [Example 234, N—((S)-(7-((R)-Cyclopropyl(2-(3,3-difluorocyclobutyl)acetamido)methyl)imidazo[1,2-b]pyridazin-2-yl)(4,4-difluorocyclohexyl)methyl)-1-(ethyl-d5)-1H-pyrazole-5-carboxamide] | 52 nM | –
130 nM | COCC(NC(=O)CC1CC(F)(F)C1)c1cnn2cc([C@H](COC(C)(C)C(F)(F)F)NC(=O)c3ccnn3C(C)C)nc2c1 (single isomer, unassigned) [Example 539, N—((R)-1-(7-((S*)-1-(2-(3,3-Difluorocyclobutyl)acetamido)-2-methoxyethyl)imidazo[1,2-b]pyridazin-2-yl)-2-((1,1,1-trifluoro-2-methylpropan-2-yl)oxy)ethyl)-1-isopropyl-1H-pyrazole-5-carboxamide] | 78 nM | –
1600 nM | O=C(CCC(F)(F)F)N[C@@H](c1cnn2cc([C@@H](NC(=O)c3ccnc(C4CC4)n3)C3CCC(F)(F)CC3)nc2c1)C1CC1 [Example 216, 2-Cyclopropyl-N—((S)-(7-((R)-cyclopropyl(4,4,4-trifluorobutanamido)methyl)imidazo[1,2-b]pyridazin-2-yl)(4,4-difluorocyclohexyl)methyl)pyrimidine-4-carboxamide] | > 20000 nM | –
900 nM | CC(C)Oc1cccc(C(=O)N[C@H](c2cn3ncc([C@H](NC(=O)CCC(F)(F)F)C4CC4)cc3n2)C2CCC(F)(F)CC2)n1 [Example 227, N—((S)-(7-((R)-Cyclopropyl(4,4,4-trifluorobutanamido)methyl)imidazo[1,2-b]pyridazin-2-yl)(4,4-difluorocyclohexyl)methyl)-6-isopropoxypicolinamide] | 20000 nM | –
520 nM | Cc1nonc1C(=O)N[C@H](c1cn2ncc([C@H](NC(=O)[C@@H]3CNC[C@H]3C(F)(F)F)C3CC3)cc2n1)C1CCC(F)(F)CC1 (relative stereo) [Example 356, N—((S)-(7-((R)-Cyclopropyl((trans-3S*,4S*)-4-(trifluoromethyl)pyrrolidine-3-carboxamido)methyl)imidazo[1,2-b]pyridazin-2-yl)(4,4-difluorocyclohexyl)methyl)-4-methyl-1,2,5-oxadiazole-3-carboxamide] | 7800 nM | –
120 nM | O=C(CCC(F)(F)F)N[C@@H](c1cnn2cc([C@@H](NC(=O)c3conc3OCC(F)F)C3CCC(F)(F)CC3)nc2c1)C1CC1 [Example 285, N—((S)-(7-((R)-Cyclopropyl(4,4,4-trifluorobutanamido)methyl)imidazo[1,2-b]pyridazin-2-yl)(4,4-difluorocyclohexyl)methyl)-3-(2,2-difluoroethoxy)isoxazole-4-carboxamide] | 340 nM | –
100 nM | Cc1nonc1C(=O)N[C@H](c1cn2ncc([C@H](NC(=O)CC3CC(F)(F)C3)C3CC3)cc2n1)[C@@H]1C[C@@H]2[C@H](C1)C2(F)F (relative stereo) [Example 405, N—((S*)-(7-((R)-Cyclopropyl(2-(3,3-difluorocyclobutyl)acetamido)methyl)imidazo[1,2-b]pyridazin-2-yl)((1R,3s,5S)-6,6-difluorobicyclo[3.1.0]hexan-3-yl)methyl)-4-methyl-1,2,5-oxadiazole-3-carboxamide] | 350 nM | –
3900 nM | O=C(CCC(F)(F)F)NC(c1cnn2cc([C@@H](NC(=O)c3cnn(CCC(F)(F)F)n3)C3CCC(F)(F)CC3)nc2c1)C1CC1 (single isomer, unassigned) [Example 19, N—((S)-(7-((S*)-Cyclopropyl(4,4,4-trifluorobutanamido)methyl)imidazo[1,2-b]pyridazin-2-yl)(4,4-difluorocyclohexyl)methyl)-2-(3,3,3-trifluoropropyl)-2H-1,2,3-triazole-4-carboxamide] | – | 3800 nM
310 nM | [2H]C([2H])([2H])n1nccc1C(=O)N[C@H](c1cn2ncc([C@H](NC(=O)CCC(F)F)C3CC3)cc2n1)C1CCC(F)(F)CC1 [Example 283, N—((S)-(7-((R)-Cyclopropyl(4,4-difluorobutanamido)methyl)imidazo[1,2-b]pyridazin-2-yl)(4,4-difluorocyclohexyl)methyl)-1-(methyl-d3)-1H-pyrazole-5-carboxamide] | 690 nM | –
130 nM | CC(F)(F)CCn1ncnc1C(=O)N[C@H](c1cn2ncc([C@H](NC(=O)CCC(F)(F)F)C3CC3)cc2n1)C1CCC(F)(F)CC1 [Example 476, N—((S)-(7-((R)-Cyclopropyl(4,4,4-trifluorobutanamido)methyl)imidazo[1,2-b]pyridazin-2-yl)(4,4-difluorocyclohexyl)methyl)-1-(3,3-difluorobutyl)-1H-1,2,4-triazole-5-carboxamide] | 390 nM | –
430 nM | COc1nocc1C(=O)N[C@H](c1cn2ncc([C@H](NC(=O)CCC(F)(F)F)C3CC3)cc2n1)C1CCC(F)(F)CC1 [Example 239, N—((S)-(7-((R)-Cyclopropyl(4,4,4-trifluorobutanamido)methyl)imidazo[1,2-b]pyridazin-2-yl)(4,4-difluorocyclohexyl)methyl)-3-methoxyisoxazole-4-carboxamide] | 1300 nM | –
210 nM | CC(C)c1ocnc1C(=O)N[C@H](c1cn2ncc([C@H](NC(=O)CCC(F)(F)F)C3CC3)cc2n1)C1CCC(F)(F)CC1 [Example 86, N—((S)-(7-((R)-Cyclopropyl(4,4,4-trifluorobutanamido)methyl)imidazo[1,2-b]pyridazin-2-yl)(4,4-difluorocyclohexyl)methyl)-5-isopropyloxazole-4-carboxamide] | 350 nM | –
150 nM | CC(C)n1nccc1C(=O)N[C@H](c1cn2ncc(C(NC(=O)CCC(F)(F)F)C3CCC3)cc2n1)C1CCC(F)(F)CC1 (single isomer, unassigned) [Example 490, N—((S)-(7-((R*)-Cyclobutyl(4,4,4-trifluorobutanamido)methyl)imidazo[1,2-b]pyridazin-2-yl)(4,4-difluorocyclohexyl)methyl)-1-isopropyl-1H-pyrazole-5-carboxamide] | 67 nM | –

SMILES | IC50 [1] | IC50 ([2]; Homo sapiens, Keratinocyte) | IC50 [2]
Cc1nonc1C(=O)N[C@@H](COC(C)(C)C)c1cn2ncc(C(NC(=O)CCC(F)(F)F)C3CC3)cc2n1 (single isomer, unassigned) [Example 314, N—((R)-2-(tert-Butoxy)-1-(7-((R*)-cyclopropyl(4,4,4-trifluorobutanamido)methyl)imidazo[1,2-b]pyridazin-2-yl)ethyl)-4-methyl-1,2,5-oxadiazole-3-carboxamide] | 560 nM | – | 2100 nM
